Results taken from US5268389A, “Thiocarboxylate ester compounds compositions containing the same” (priority 1990, dated 1993).
Values joined by “and” are separate entries in the source; they are usually repeats but may differ in a detail not shown here. Equal entries are not always repeated. Each block holds one compound with its values, some of them ahead of it.

Key:
HIV [1] = experiment: Reduction of HIV cytopathic effect, CEMZ (CEM line with sub-effective amount of AZT); type: cell-based; conditions: CEM cells, read-out: Activity of Anti-HIV Compounds (EC50), CEMZ
Procedure: (§1) The compounds of Examples were tested for anti-AIDS activity by subjecting them to standard National Cancer Institute ("NCI") in vitro screening procedures. In carrying out each test, two blanks were run. In the first blank, HIV and a culture of a standard human cell line were incubated together to measure the infectivity of the virus. The viability of the cells was measured after holding for six or seven days. In an "effective" test, most cells were infected before the holding period was complete.
(§2) In the second blank, the cell line culture and the compound being tested (but not virus) were incubated together to measure the toxicity of the drug to the cellline. The viability of the cells was measured as a function of concentration of the compound, after holding for seven days. Typically, the cells survive at low compound concentrations, but at some higher concentration, toxicity of the compound is manifested and the cells die. The concentration of the test compound that results in 50% inhibition of cell growth is defined as the IC50.
(§3) Finally, the protective effects of the test compounds were measured. Each cell culture and test compound were incubated with the virus and the viability of the cells was measured as a function of compound concentration after holding for six or seven days. If the compound is active in protecting the cells against the virus, there is typically low cell viability until an effective concentration of the test compound is reached. At this point, cell viability increases steadily toward 100% unless the toxic effect of the compound (as measured in the second blank) takes effect. The concentration of the test compound that results in 50% "control," i.e., a 50% reduction of the viral cytopathic effect, is defined as the EC 50. The therapeutic index TI50 is calculated as IC50/EC50.
(§4) Values of test compound concentrations required for between 20 and 50% reduction of the viral cytopathic effect can also be determined. Such compounds are classified as moderately active.
(§5) The compounds were tested to determine their reduction of HIV cytopathic effect on the human cell lines CEM and MT2. Tests were done by innoculating these cell lines either with free HIV (V) or with a virus Previously cultured with host cells (C). Thus, in Table III the designation CEMV means CEM line cells innoculated with free virus and MT2C means MT2 cells innoculated with cultured viral infected MT2 cells. In some cases the compound was also tested on a cell line together with a sub-effective amount of the known HIV viricide AZT. This is done to test possible synergistic effects. Such a test on the CEM line is denoted CEMZ.

HIV [2] = experiment: Reduction of HIV cytopathic effect, MT2C (MT2 cells inoculated with cultured virus-infected MT2 cells); type: cell-based; conditions: inhibition of viral cytopathic effect, MT2 cells, cultured virus
Procedure: as §1
In the second blank, the cell line culture and the compound being tested (but not virus) were incubated together to measure the toxicity of the drug to the cellline. The viability of the cells was measured as a function of concentration of the compound, after holding for seven days. […]
Finally, the protective effects of the test compounds were measured. Each cell culture and test compound were incubated with the virus and the viability of the cells was measured as a function of compound concentration after holding for six or seven days. […] At this point, cell viability increases steadily toward 100% unless the toxic effect of the compound (as measured in the second blank) takes effect. […] The therapeutic index TI50 is calculated as IC50/EC50.
(§6) Values of test compound concentrations required for between 20 and 50% reduction of the viral cytopathic effect can also be determined. […]

HIV [3] = experiment: Reduction of HIV cytopathic effect, CEMC (CEM cells, virus previously cultured with host cells); type: cell-based; conditions: Human immunodeficiency virus 1, CCRF-CEM, read-out: Activity of Anti-HIV Compounds (EC50), CEMC
Procedure: as §1, §2
as §3, with “The concentration of the test compound that results in 50% "control," i.e., a 50% reduction of the viral cytopathic effect, is defined as the EC 50.” left out
as §6
5) Individual wells are analyzed spectrophotometrically to quantity formazan production, and in addition are viewed microscopically for detection of viable cells and confirmation of protective activity. […]

HIV [4] = experiment: Reduction of HIV cytopathic effect, CEM-6 (CEMV test, six days); type: cell-based; conditions: inhibition of viral cytopathic effect, CEM cells, 8640 min
Procedure: as §1, §3, §4, §5
1) T4 lymphocytes (CEM cell line) are exposed to HIV at a virus to cell ratio of approximately 0.05 and plated along with non-infected control cells in 96-well microtiter plates.
2) Each candidate agent is dissolved in dimethyl sulfoxide (unless otherwise indicated), then diluted 1:200 in cell culture medium. Further dilutions (five-fold) are prepared before adding to an equal volume of medium containing either infected or noninfected cells.
3) Cultures are incubated at 37° C. in a 5% carbon dioxide atmosphere for seven days (if six days the CEMV test is identified as CEM-6).
(§7) 4) The tetrazolium salt, XTT, is added to all wells, and cultures are incubated to allow formazan color development by viable cells.
(§8) 5) Individual wells are analyzed spectrophotometrically to quantity formazan production, and in addition are viewed microscopically for detection of viable cells and confirmation of protective activity.
(§9) 6) Drug-treated virus-infected cells are compared with drug-treated non-infected cells and with other appropriate controls (untreated infected and untreated non-infected cells, drug-containing wells without cells, etc.) on the same plate.

HIV [5] = experiment: Reduction of HIV cytopathic effect, CEM-IW protocol; type: cell-based; conditions: inhibition of viral cytopathic effect, asterisk: CEMIW protocol
Procedure: as §1, §3, §4, §5
The aforementioned identifiers are used when a batch was prepared and samples inserted into the wells. In procedures calling for the addition of the drug (or no drug) and the CEM uninfected cells to each well, followed by the subsequent addition of the HIV virus, the protocol is designated as CEM-IW.
as §7, §8, §9
Asterisks indicate the CEMIW protocol.

[6] = tested on: succinate dehydrogenase complex; conditions: mitochondria from Ustilago maydis, White et al. (1978); cited from earlier work

EC50 (HIV [1]; Human immunodeficiency virus 1, CCRF-CEM): 12 µM
Compound: CCCOC(=O)c1cc(NC(=O)c2ccccc2C)ccc1Cl [Compound 24, Propyl 2-chloro-5-[(2-methylbenzoyl)amino]benzoate]

EC50 (HIV [1]): 34.4 µM and 39.4 µM
Compound: CC(C)OC(=O)c1cc(NC(=O)c2ccccc2F)ccc1Cl [Compound 25, 1-Methylethyl 2-chloro-5-[(2-fluorobenzoyl)amino]benzoate]

Compound: CC1=C(C(=O)Nc2ccc(Cl)cc2)SCCS1 [Compound 26, N-(4-Chlorophenyl)-5,6-dihydro-3-methyl-1,4-dithiin-2-carboxamide]
Activity class of Anti-HIV Compounds, MT2C (HIV [2]): MA (moderate activity (MA), that is, inhibition between approximately 20 and 50%) | EC50 (HIV [3]): 35.5 µM

Compound: COCCOCCOC(=O)c1cc(NC(=O)C2=C(C)OCCS2)ccc1Cl [Compound 78, 2-(2-Methoxyethoxy)ethyl 2-chloro-5-[[(5,6-dihydro-2-methyl-1,4-oxathiin-3-yl)carbonyl]amino]benzoate]
Activity class of Anti-HIV Compounds, CEM-6 (HIV [4]): MA (moderate activity (MA), that is, inhibition between approximately 20 and 50%) | Activity class of Anti-HIV Compounds, CEM-IW (HIV [5]): MA (moderate activity (MA), that is, inhibition between approximately 20 and 50%)

Compound: Cc1nc(C)c(C(=O)Nc2ccc(Cl)c(C(=O)OC(C)C)c2)s1 [Compound 94]
Activity class of Anti-HIV Compounds, CEM-6 (HIV [4]): MA (moderate activity (MA), that is, inhibition between approximately 20 and 50%) | Activity class of Anti-HIV Compounds, CEM-IW (HIV [5]): MA (moderate activity (MA), that is, inhibition between approximately 20 and 50%)

Compound: COC(=O)c1cccc(NC(=O)C2=C(C)OCCS2)c1 [methyl 3-[[(5,6-dihydro-2-methyl-1,4-oxathiin-3-yl)carbonyl]amino]benzoate, reference compound]
inhibition of succinate dehydrogenase complex [6]: inhibitors of succinate dehydrogenase complex
